The target in series [1] is T1, human MIF (Homo sapiens, UniProt P14174).
T1 sequence (P14174 2-115 limits assumed): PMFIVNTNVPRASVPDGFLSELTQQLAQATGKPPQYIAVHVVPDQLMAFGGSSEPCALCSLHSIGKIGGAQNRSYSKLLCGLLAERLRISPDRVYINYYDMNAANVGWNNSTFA
Kind of series: Depletion of injected recombinant human MIF from serum in mice. Type of series: in vivo. The arrangement: injected into mice. The settings on record: control molecules; FIG. 136. On the procedure:
In vivo human MIF depletion experiments were undertaken to determine whether MIF-GN3 can mediate the depletion of injected recombinant human MIF from serum in mice. Mice were injected with five μg of the human MIF protein. In this experiment, one group of mice was also injected with a single 10 mpk dose of MIF-GN3 along with human MIF protein. It was observed that after four hours, the average level of human MIF in serum in the PBS-treated mice was 1.76 ng/mL (FIG. 134). In mice treated with 10 mpk MIF-GN3, however, the concentration of human MIF in serum was 0.68 ng/mL. One day after the initial injection, human MIF levels had reached background levels for both conditions. […] It was hypothesized that, due to the short half-life of human MIF in serum, investigating human MIF levels at earlier time points may be more informative.
Next, an experiment was performed to determine whether MIF-GN3 could enhance MIF clearance at time points earlier than four hours. Mice were coinjected with recombinant human MIF and 10 mpk MIF-GN3 via either i.p. or i.v. routes. For the PBS control arms, human MIF was injected with PBS. It was observed that in the absence of MIF-GN3, there was a spike in huMIF levels in circulation after 30 minutes (FIG. 135). In the presence of MIF-GN3, however, levels of MIF protein remained low at 30 minutes and no spike in its concentration was observed. By two hours, the levels of human MIF in circulation decreased to background levels. […] In a further experiment, whether an inhibitor of the MIF protein (3w) is able to mediate the protein's depletion from serum was determined. A bifunctional molecule that mediates the depletion of α-DNP antibody from serum was also assayed as a negative control. Neither of these molecules was expected to mediate the formation of a ternary complex between human MIF protein and ASGPR.
In order to confirm that mice injected with one or ten mpk MIF-GN3 had received the injection, and that the observed stability of MIF concentrations in MIF-GN3 treated mice was not the result of injection error, 200 μg of α-DNP antibody was coinjected with the MIF protein in this experiment. […] An investigation of the ability of MIF-GN3 to mediate the depletion of endogenous mouse MIF in vivo was next undertaken. Mice were treated with either PBS or 10 mpk of MIF-GN3. […] One possible explanation for this finding is that MIF protein may be synthesized rapidly, and any increase in degradation mediated by MIF-GN3 may not be of a large enough magnitude to impact the protein's level in serum.

Series [2] can be described thus: Pharmacokinetics of DNP-GN3 in nude mice. The settings on record: 1 mpk. Type of series: in vivo.
Series [3] deals with ASGPR on the surface of immortalized human hepatocyte HepG2 cells. Kind of series: DNP-GN3-mediated ternary complex formation: association of fluorescently labeled α-DNP antibody with HepG2 cells in suspension. Type of series: cell-based. Particulars: for concentration of DNP-GN3 eliciting half-maximal fluorescence association: bell-shaped response, FIG. 86A. From the text:
It was investigated whether DNP-GN3 could mediate the formation of a ternary complex between a fluorescently labeled α-DNP antibody and ASGPR on the surface of immortalized human hepatocyte HepG2 cells in suspension. […] The observed bell-shaped response to DNP-GN3 concentration is consistent with the prozone effect commonly observed in systems wherein a ternary complex is formed.

“And” between values parts separate entries of the source, which are not always exact repeats. Equal values may be shown once.

Take `CC(=O)NC1C(OCCOCCOCCNC(=O)CCOCC(COCCC(=O)NCCOCCOCCOC2OC(CO)C(O)C(O)C2NC(C)=O)(COCCC(=O)NCCOCCOCCOC2OC(CO)C(O)C(O)C2NC(C)=O)NC(=O)CNC(=O)COCCOCCOCCNc2ccc([N+](=O)[O-])cc2[N+](=O)[O-])OC(CO)C(O)C1O` (stereo not shown) [DNP-GN3]: the “human MIF concentration in serum compared to the PBS control” value in series [1] is on record as “no significant decreases”. Besides, the “bioavailability via IP dosing” value in series [2] is “bioavailable”. In addition, in series [2] (IP), the half-life in serum was 40.2 min and the “time at which maximal serum concentration is reached” value was determined as 1 h. Further, the “concentration of maximal ternary complex formation” value in series [3] (DNP-GN3) was 20 nM and 40 nM. Also, in series [3] (higher concentration (prozone)), the “concentration of DNP-GN3 eliciting half-maximal fluorescence association” value amounted to 0.12 µM. The “concentration of DNP-GN3 eliciting half-maximal fluorescence association” value in series [3] (lower concentration) was found to be 0.0074 µM.

The values above are taken from patent US20230087994A1, “TARGETED BIFUNCTIONAL DEGRADERS” (YALE UNIVERSITY, priority 2019, published 2023).
